Data as given in PubChem BioAssay AID1963967 (Molecular Pharmacology Branch, DTP, NCI, 2024).

Test system: 855422-203-R-J1-PDC spheroids with HUVEC/MSC, viability
Test: Anticancer human tumor 855422-203-R-J1-PDC patient-derived bladder carcinoma cell line growth inhibition [PI3K]
Settings: for IC50: curve of first compound; for viability, T/C: stronger effect = lower value; active = viability on the fitted dose curve at most 10% of control; inactive = the rest
How it was run: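 Tumor cells grown as multi-cell spheroids with HUVEC endothelial cells and MSC fibroblast-like stroma were treated with targeted agents combined with inavolisib, alpelisib, duvelisib or copanlisib. Doses fell in half-log steps from near clinical Cmax, else from 10 microM. Viability was measured.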

[1] = second compound 0.0316 µM, first compound 0.0316 µM
[2] = second compound 0.0316 µM, first compound 0.1 µM
[3] = second compound 0.0316 µM, first compound 0.316 µM
[4] = second compound 0.0316 µM, first compound 1 µM
[5] = second compound 0.0316 µM, first compound 3.16 µM
[6] = second compound 0.0316 µM, first compound 10 µM
[7] = second compound 0.1 µM, first compound 0.0316 µM
[8] = second compound 0.1 µM, first compound 0.1 µM
[9] = second compound 0.1 µM, first compound 0.316 µM
[10] = second compound 0.1 µM, first compound 1 µM
[11] = second compound 0.1 µM, first compound 3.16 µM
[12] = second compound 0.1 µM, first compound 10 µM
[13] = second compound 0.316 µM, first compound 0.0316 µM
[14] = second compound 0.316 µM, first compound 0.1 µM
[15] = second compound 0.316 µM, first compound 0.316 µM
[16] = second compound 0.316 µM, first compound 1 µM
[17] = second compound 0.316 µM, first compound 3.16 µM
[18] = second compound 0.316 µM, first compound 10 µM
[19] = second compound 1 µM, first compound 0.0316 µM
[20] = second compound 1 µM, first compound 0.1 µM
[21] = second compound 1 µM, first compound 0.316 µM
[22] = second compound 1 µM, first compound 1 µM
[23] = second compound 1 µM, first compound 3.16 µM
[24] = second compound 1 µM, first compound 10 µM
[25] = second compound 3.16 µM, first compound 0.0316 µM
[26] = second compound 3.16 µM, first compound 0.1 µM
[27] = second compound 3.16 µM, first compound 0.316 µM
[28] = second compound 3.16 µM, first compound 1 µM
[29] = second compound 3.16 µM, first compound 3.16 µM
[30] = second compound 3.16 µM, first compound 10 µM
[31] = second compound 10 µM, first compound 0.0316 µM
[32] = second compound 10 µM, first compound 0.1 µM
[33] = second compound 10 µM, first compound 0.316 µM
[34] = second compound 10 µM, first compound 1 µM
[35] = second compound 10 µM, first compound 3.16 µM
[36] = second compound 10 µM, first compound 10 µM
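Also: agents incubated with spheroids for one week before read-out.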
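For viability, T/C in this document: 100% = DMSO vehicle-treated control wells.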

C=CC(=O)N1CCN(c2nc(=O)n(-c3c(C)ccnc3C(C)C)c3nc(-c4c(O)cccc4F)c(F)cc23)C(C)C1 (centres undefined) + Cc1nc(NC(=O)N2CCCC2C(N)=O)sc1-c1ccnc(C(C)(C)C(F)(F)F)c1
> 10 µM: IC50 (second compound 0.0316 µM) | IC50 (second compound 0.1 µM) | IC50 (second compound 0.316 µM) | IC50 (second compound 1 µM)
inactive: viability, T/C [1] 111% | viability, T/C [2] 87.8% | viability, T/C [3] 119% | viability, T/C [4] 104% | viability, T/C [5] 109% | viability, T/C [6] 128% | viability, T/C [7] 108% | viability, T/C [8] 86.8% | viability, T/C [9] 106% | viability, T/C [10] 103% | viability, T/C [11] 117% | viability, T/C [12] 114% | viability, T/C [13] 94.7% | viability, T/C [14] 87.3% | viability, T/C [15] 104% | viability, T/C [16] 99.5% | viability, T/C [17] 117% | viability, T/C [18] 109% | viability, T/C [19] 75.9% | viability, T/C [20] 76.1% | viability, T/C [21] 82.6% | viability, T/C [22] 92.5% | viability, T/C [23] 101% | viability, T/C [24] 97.4% | viability, T/C [25] 50.6% | viability, T/C [26] 50.9% | viability, T/C [27] 58.5% | viability, T/C [28] 64% | viability, T/C [29] 80.4% | viability, T/C [30] 67.9% | viability, T/C [31] 26.9% | viability, T/C [32] 27.1% | viability, T/C [33] 31.5% | viability, T/C [34] 37.2% | viability, T/C [35] 41.2% | viability, T/C [36] 34.2%
< 0.0316 µM: IC50 (second compound 3.16 µM) | IC50 (second compound 10 µM)

CC(C)NCC(C(=O)N1CCN(c2ncnc3c2C(C)CC3O)CC1)c1ccc(Cl)cc1 (centres undefined) + Cc1nc(NC(=O)N2CCCC2C(N)=O)sc1-c1ccnc(C(C)(C)C(F)(F)F)c1
active: viability, T/C [30] 7.85% | viability, T/C [35] 10.5% | viability, T/C [36] 3.97%
0.188 µM: IC50 (second compound 1 µM)
1.36 µM: IC50 (second compound 0.0316 µM)
0.875 µM: IC50 (second compound 0.316 µM)
1.08 µM: IC50 (second compound 0.1 µM)
< 0.0316 µM: IC50 (second compound 3.16 µM) | IC50 (second compound 10 µM)
inactive: viability, T/C [1] 94.8% | viability, T/C [2] 77.4% | viability, T/C [3] 80.7% | viability, T/C [4] 52.2% | viability, T/C [5] 35.9% | viability, T/C [6] 20% | viability, T/C [7] 88.6% | viability, T/C [8] 80.6% | viability, T/C [9] 67.9% | viability, T/C [10] 51.1% | viability, T/C [11] 33.7% | viability, T/C [12] 19.3% | viability, T/C [13] 85.6% | viability, T/C [14] 69% | viability, T/C [15] 68.3% | viability, T/C [16] 47.2% | viability, T/C [17] 30.8% | viability, T/C [18] 16.1% | viability, T/C [19] 58% | viability, T/C [20] 55% | viability, T/C [21] 42.4% | viability, T/C [22] 42.5% | viability, T/C [23] 24.2% | viability, T/C [24] 11.1% | viability, T/C [25] 39.8% | viability, T/C [26] 37% | viability, T/C [27] 30.7% | viability, T/C [28] 30.2% | viability, T/C [29] 17.5% | viability, T/C [31] 20.2% | viability, T/C [32] 15.3% | viability, T/C [33] 17.8% | viability, T/C [34] 14.2%
